Experimental data taken from paper PMC11054487, “Species-Specific Unbound Fraction Differences in Highly Bound PFAS: A Comparative Study across Human, Rat, and Mouse Plasma and Albumin” (Toxics, 2024).

What was measured:
[1] = target: mouse serum albumin (MSA) (Mus musculus, UniProt P07724); experiment: Presaturation equilibrium dialysis, fraction unbound in mouse serum albumin solution; details: for fraction unbound at 18 h, 5 µM: mouse
Protocol: (§1) The equilibrium dialysis device (EQD) HTD96 (Gales Ferry, CT, USA) was assembled according to manufacturer instructions. DPBS buffer solutions were prepared by adding PFAS with a concentration of either approximately five-fold of the estimated fu values based on initial available data or assumed to be 0.001 if no data was available. The dialysis apparatus and membranes assembled were pre-saturated (250 µL) three times in total with PFAS spiked DPBS buffer solution; twice for 1 h followed by a final 18-h pre-saturation. This same solution was used on the receiver side of the EQD. […] This 4% albumin was used in the albumin binding study to recapitulate plasma concentration, as human albumin concentration in plasma is 3.5–4.5 g/dL (530–680 µM). The matrix was diluted five-fold using DPBS for PFAS that had preliminary fu values lower than 0.01. Dimethylsulfoxide (DMSO) stock solutions of test PFAS were prepared at 500 μM and added to species-specific plasma or 4% albumin to a final concentration of 5 μM with 1% DMSO. Next, 150 μL of PFAS spiked DPBS was added to the receiver side of the membrane and 150 μL of compound spiked matrix was added to the donor side. […] Each PFAS:matrix combination was assessed in quadruplicate. For sample collection, 15 μL of buffer and 45 μL of matrix were sampled from the dialysis device into a 96-deep well plate and matrix-matched with either blank buffer or matrix. The samples were then quenched with 200 μL of cold acetonitrile containing internal standard (tolbutamide 30 nM and carbamazepine 12 nM) to precipitate proteins. Next, the plates were sealed and placed on a vortex mixer for 1 min, and then centrifuged (Beckman Coulter, Fullerton, CA, USA) at 3000 rpm for 5 min at room temperature. Lastly, the supernatant was transferred to a new 96-well plate, fully dried down under nitrogen gas, reconstituted with 200 µL of 50/50 (v/v) HPLC grade water/acetonitrile, and vortexed for 1 min prior to LC-MS/MS analysis.
(§2) LC-MS/MS analyses were performed on a SCIEX Triple Quad 5500 mass spectrometer (SCIEX, Concord, ON, Canada) equipped with Turbo Ion Spray interface. […] All instruments were controlled and synchronized by SCIEX Analyst software (version 1.6.3). Mobile phases compositions were 0.1% formic acid in water (mobile phase A) and 0.1% formic acid in acetonitrile (mobile phase B). […] The column was equilibrated at 5% B for 0.5 min before injecting samples. The total run time for each injection was 6 min. The chromatographic separation was conducted on a Phenomenex Kinetex C18 100Å 30 × 2.1 mm column (Torrance, CA, USA) with a flow rate of 0.5 mL/min. The injection volume for each sample was 5 µL. Multiple-reaction-monitoring (MRM) mode using specific precursor/product ion transitions was used for quantification. Data processing was performed using SCIEX Analyst software (version 1.6.3).
(§3) The calculations for fu are shown in Equations (1) and (2), where D is the dilution factor and fu,d is the diluted fu shown below. All calculations are based on area ratios (analyte peak area/IS peak area), and MS responses used for calculations were all in linear ranges. […] (1) Diluted fud=Receiver Area Ratio/Donor Area Ratio (2) Undiluted fu=1/D/1/fu,d−1+1/D
(§4) Albumin concentrations for rodents have been reported in the literature as rat: 3.0 g/dL; CD-1 mice: 2.7 g/dL; C57BL/6 mice: 2.9 g/dL [53].

human plasma = experiment: Presaturation equilibrium dialysis, fraction unbound in human plasma; format: in vitro ADME; design: fraction unbound at 18 h: dose or concentration left out as unconfirmed; details: 5 μM PFAS, 18 h, 37 °C, value (CV)
Protocol: (§5) Each PFAS:matrix combination was assessed in quadruplicate.
(§6) The injection volume for each sample was 5 µL.

rat (Wistar-Han) plasma = experiment: Presaturation equilibrium dialysis, fraction unbound in rat plasma; format: in vitro ADME; design: fraction unbound at 18 h: dose or concentration left out as unconfirmed; details: 5 μM PFAS, 18 h, 37 °C, value (CV)
Protocol: as §5, §6

mouse (CD-1) plasma = experiment: Presaturation equilibrium dialysis, fraction unbound in CD-1 mouse plasma; format: in vitro ADME; design: fraction unbound at 18 h: dose or concentration left out as unconfirmed; details: 5 μM PFAS, 18 h, 37 °C, value (CV)
Protocol: as §5, §6

mouse (C57BL/6) plasma = experiment: Presaturation equilibrium dialysis, fraction unbound in C57BL/6 mouse plasma; format: in vitro ADME; design: fraction unbound at 18 h: dose or concentration left out as unconfirmed; details: 5 μM PFAS, 18 h, 37 °C, value (CV)
Protocol: as §5, §6

rat serum albumin (RSA) = rat serum albumin (RSA) (Rattus norvegicus, UniProt P02770); experiment: Presaturation equilibrium dialysis, fraction unbound in rat serum albumin solution; details: for fraction unbound at 18 h, 5 µM: rat
Sequence of rat serum albumin (RSA) (P02770 25-608): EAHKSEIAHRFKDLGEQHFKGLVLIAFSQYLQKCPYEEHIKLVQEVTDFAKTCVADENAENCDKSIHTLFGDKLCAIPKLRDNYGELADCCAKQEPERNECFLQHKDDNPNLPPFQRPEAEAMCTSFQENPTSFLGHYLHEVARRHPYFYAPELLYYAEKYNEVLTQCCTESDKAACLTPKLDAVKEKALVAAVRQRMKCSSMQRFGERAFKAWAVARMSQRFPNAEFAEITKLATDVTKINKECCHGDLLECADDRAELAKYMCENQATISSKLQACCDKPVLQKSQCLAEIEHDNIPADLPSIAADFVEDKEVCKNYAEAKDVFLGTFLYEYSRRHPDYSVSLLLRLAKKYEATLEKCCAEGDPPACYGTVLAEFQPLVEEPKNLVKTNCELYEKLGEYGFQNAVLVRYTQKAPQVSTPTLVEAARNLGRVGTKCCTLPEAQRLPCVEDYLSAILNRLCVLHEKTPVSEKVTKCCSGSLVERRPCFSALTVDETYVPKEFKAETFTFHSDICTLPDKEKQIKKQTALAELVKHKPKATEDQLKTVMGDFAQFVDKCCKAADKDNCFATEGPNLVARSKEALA
Protocol: as §1, §2, §3, §4

[2] = target: T1, human serum albumin (HSA) (Homo sapiens, UniProt P02768); experiment: Presaturation equilibrium dialysis, fraction unbound in human serum albumin solution; format: in vitro ADME; details: 4% human serum albumin in PBS, value (CV)
T1 construct: purchased Sigma-Aldrich
T1 sequence (P02768 25-609): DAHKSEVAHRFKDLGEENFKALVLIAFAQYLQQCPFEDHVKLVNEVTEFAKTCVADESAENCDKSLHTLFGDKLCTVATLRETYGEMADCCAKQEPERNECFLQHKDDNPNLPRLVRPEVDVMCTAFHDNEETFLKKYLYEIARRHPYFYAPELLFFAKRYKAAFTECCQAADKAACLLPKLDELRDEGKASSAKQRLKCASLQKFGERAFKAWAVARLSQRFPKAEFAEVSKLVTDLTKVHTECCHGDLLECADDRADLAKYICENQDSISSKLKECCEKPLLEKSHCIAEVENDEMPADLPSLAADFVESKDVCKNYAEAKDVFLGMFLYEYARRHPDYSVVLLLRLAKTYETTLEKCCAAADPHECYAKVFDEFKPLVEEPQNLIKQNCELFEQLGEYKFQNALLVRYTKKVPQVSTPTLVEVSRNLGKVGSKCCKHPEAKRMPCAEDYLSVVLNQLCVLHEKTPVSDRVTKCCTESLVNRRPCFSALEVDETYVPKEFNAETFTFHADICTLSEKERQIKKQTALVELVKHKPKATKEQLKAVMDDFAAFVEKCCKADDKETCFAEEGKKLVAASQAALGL
Protocol: as §5, §6

[3] = humans; cited from earlier work
[4] = Presaturation equilibrium dialysis, fraction unbound in human plasma; format: in vitro ADME; design: fraction unbound at 18 h: dose or concentration left out as unconfirmed; details: human, 37 °C, value (CV), read-out: Fraction Unbound (fu) and Coefficient of Variance (CV), Human Plasma
Protocol: as §5, §6

[5] = Presaturation equilibrium dialysis, fraction unbound in rat plasma; format: in vitro ADME; design: fraction unbound at 18 h: dose or concentration left out as unconfirmed; details: Wistar-Han rat plasma, 37 °C, value (CV), read-out: Fraction Unbound (fu) and Coefficient of Variance (CV), Rat Plasma
Protocol: as §5, §6

[6] = Presaturation equilibrium dialysis, fraction unbound in CD-1 mouse plasma; format: in vitro ADME; design: fraction unbound at 18 h: dose or concentration left out as unconfirmed; details: 37 °C, value (CV), read-out: Fraction Unbound (fu) and Coefficient of Variance (CV), CD-1 Plasma
Protocol: as §5, §6

[7] = Presaturation equilibrium dialysis, fraction unbound in C57BL/6 mouse plasma; format: in vitro ADME; design: fraction unbound at 18 h: dose or concentration left out as unconfirmed; details: 37 °C, value (CV), read-out: Fraction Unbound (fu) and Coefficient of Variance (CV), C57BL/6 Plasma
Protocol: as §5, §6

[8] = 3% mouse serum albumin, value (%CV)
[9] = 4% mouse serum albumin in PBS, 5 μM PFAS, value (CV)
[10] = 3% rat serum albumin, value (%CV)
[11] = 4% rat serum albumin in PBS, 5 μM PFAS, value (CV)
[12] = 4% mouse serum albumin (MSA) solution, Fraction Unbound (fu) and Coefficient of Variance (CV), MSA, 4% mouse serum albumin in PBS, 5 μM PFAS, value (CV)
[13] = isolated protein, Fraction unbound (fu) and %CV, MSA 3%, 3% mouse serum albumin, value (%CV)
[14] = 4% rat serum albumin (RSA) solution, Fraction Unbound (fu) and Coefficient of Variance (CV), RSA, 4% rat serum albumin in PBS, 5 μM PFAS, value (CV)
[15] = isolated protein, Fraction unbound (fu) and %CV, RSA 3%, 3% rat serum albumin, value (%CV)

Sequence of mouse serum albumin (MSA) (P07724 25-608): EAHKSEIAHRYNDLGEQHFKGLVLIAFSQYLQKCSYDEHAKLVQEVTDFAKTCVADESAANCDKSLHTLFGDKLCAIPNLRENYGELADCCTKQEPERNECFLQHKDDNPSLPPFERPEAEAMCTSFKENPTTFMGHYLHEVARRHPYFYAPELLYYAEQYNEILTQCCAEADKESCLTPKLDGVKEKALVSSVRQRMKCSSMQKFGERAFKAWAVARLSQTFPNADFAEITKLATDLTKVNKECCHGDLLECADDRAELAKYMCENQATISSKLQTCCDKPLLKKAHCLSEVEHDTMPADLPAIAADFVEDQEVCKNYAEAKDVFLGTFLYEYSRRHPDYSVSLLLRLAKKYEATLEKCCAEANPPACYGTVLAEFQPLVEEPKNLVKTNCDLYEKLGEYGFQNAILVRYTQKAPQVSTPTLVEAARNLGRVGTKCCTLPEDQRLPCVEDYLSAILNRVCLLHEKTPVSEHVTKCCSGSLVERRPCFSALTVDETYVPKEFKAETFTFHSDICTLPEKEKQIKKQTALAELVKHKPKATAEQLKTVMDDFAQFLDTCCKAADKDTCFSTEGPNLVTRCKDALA

| SMILES | Fraction unbound (fu) and %CV, MSA 3% [1, 8] | Fraction Unbound (fu) and Coefficient of Variance (CV), MSA [1, 9] | Fraction Unbound (fu) and Coefficient of Variance (CV), Human Plasma (human plasma) | Fraction Unbound (fu) and Coefficient of Variance (CV), Rat Plasma (rat (Wistar-Han) plasma) | Fraction Unbound (fu) and Coefficient of Variance (CV), CD-1 Plasma (mouse (CD-1) plasma) | Fraction Unbound (fu) and Coefficient of Variance (CV), C57BL/6 Plasma (mouse (C57BL/6) plasma) | Fraction unbound (fu) and %CV, RSA 3% (rat serum albumin (RSA); [10]) | Fraction Unbound (fu) and Coefficient of Variance (CV), RSA (rat serum albumin (RSA); [11]) | Fraction Unbound (fu) and Coefficient of Variance (CV), HSA ([2]; 5 μM PFAS) | t1/2 [3] | also measured |
| --- | --- | --- | --- | --- | --- | --- | --- | --- | --- | --- | --- |
| O=C(O)C(F)(F)C(F)(F)C(F)(F)C(F)(F)C(F)(F)F [PFHxA, perfluorohexanoic acid] | 0.0266 (11%) | 0.0329(11%) | 0.038(6%) | 0.0358(7%) | 0.169(5%) | 0.182(7%) | 0.0212 (4%) | 0.0264(4%) | 0.0336(7%) | – | – |
| O=S(=O)(O)C(F)(F)C(F)(F)C(F)(F)C(F)(F)F [PFBS, perfluorobutanesulfonic acid] | 0.0321 (11%) | 0.0396(11%) | – | 0.0542(3%) | 0.261(7%) | 0.28(5%) | 0.0168 (8%) | 0.0208(8%) | 0.056(5%) | 26 days | half-lives [3]: 26 days |
| O=S(=O)(O)C(F)(F)C(F)(F)C(F)(F)C(F)(F)C(F)(F)C(F)(F)C(F)(F)C(F)(F)F [PFOS, perfluorooctanesulfonic acid] | 0.00102 (19%) | 0.00126(19%) | – | 0.00109(4%) | – | 0.00256(8%) | 0.000697 (25%) | 0.000852(25%) | 0.000524(13%) | 3.3–5.4 years | – |
| O=C(O)C(F)(F)C(F)(F)C(F)(F)F [PFBA, Perfluorobutanoic acid] | 0.206 (23%) | 0.24(22%) | – | 0.37(24%) | 0.757(6%) | 0.767(2%) | 0.18 (3%) | 0.216(3%) | 0.15(5%) | 3.1 days | half-lives [3]: 3 days |
| O=C(O)C(F)(F)C(F)(F)C(F)(F)C(F)(F)C(F)(F)C(F)(F)C(F)(F)C(F)(F)C(F)(F)C(F)(F)F [PFUDA, perfluoroundecanoic acid] | 0.000417 (19%) | 0.000513(19%) | 0.000419(24%) | 0.000349(20%) | 0.000524(15%) | – | 0.000147 (28%) | 0.000178(28%) | 0.000417(23%) | – | – |
| NS(=O)(=O)C(F)(F)C(F)(F)C(F)(F)C(F)(F)C(F)(F)C(F)(F)C(F)(F)C(F)(F)F [PFOSA, perfluorooctanesulfonamide] | – | – | – | – | – | – | – | – | – | – | fraction unbound at 18 h, 5 µM [1, 12]: 0.00127; fraction unbound at 18 h, 5 µM [1, 13]: 0.00102; fraction unbound at 18 h [4]: 0.0019; fraction unbound at 18 h [5]: 0.00197; fraction unbound at 18 h [6]: 0.00326; fraction unbound at 18 h [7]: 0.0023; fraction unbound at 18 h, 5 µM (rat serum albumin (RSA); [14]): 0.00118; fraction unbound at 18 h, 5 µM (rat serum albumin (RSA); [15]): 0.000952; fraction unbound at 18 h ([2]; 4% human serum albumin (HSA) solution, read-out: Fraction Unbound (fu) and Coefficient of Variance (CV), HSA): 0.00152 |
| O=S(=O)(O)C(F)(F)C(F)(F)C(F)(F)C(F)(F)C(F)(F)C(F)(F)F [PFHxS, perfluorohexanesulfonic acid] | – | – | – | – | – | – | – | – | – | – | fraction unbound at 18 h, 5 µM [1, 12]: 0.00225; fraction unbound at 18 h, 5 µM [1, 13]: 0.00181; fraction unbound at 18 h, 5 µM ([4]; 5 μM PFAS): 0.000695; fraction unbound at 18 h, 5 µM ([5]; 5 μM PFAS): 0.00076; fraction unbound at 18 h, 5 µM ([6]; 5 μM PFAS): 0.0128; fraction unbound at 18 h, 5 µM ([7]; 5 μM PFAS): 0.013; fraction unbound at 18 h, 5 µM (rat serum albumin (RSA); [14]): 0.000573; fraction unbound at 18 h, 5 µM (rat serum albumin (RSA); [15]): 0.00047; fraction unbound at 18 h, 5 µM ([2]; 4% human serum albumin (HSA) solution, 5 μM PFAS, read-out: Fraction Unbound (fu) and Coefficient of Variance (CV), HSA): 0.000245 |
| O=S(=O)(O)CCC(F)(F)C(F)(F)C(F)(F)C(F)(F)C(F)(F)C(F)(F)F [6:2 FtS, 6:2 fluorotelomer sulfonate] | 0.0091 (9%) | 0.0113(9%) | 0.0197(2%) | 0.0236(4%) | 0.0255(2%) | 0.0253(2%) | 0.00892 (4%) | 0.0111(4%) | 0.00746(0%) | – | – |
| O=C(O)C(F)(F)C(F)(F)C(F)(F)C(F)(F)F [PFPA, perfluoropentanoic acid] | 0.0809 (11%) | 0.0987(11%) | 0.0888(3%) | 0.18(2%) | 0.609(4%) | 0.577(5%) | 0.0769 (4%) | 0.0942(4%) | 0.0933(6%) | – | – |
